According to PubChem BioAssay (NCI):
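These data come from cells grown in 96-well plates and exposed to compound for 48 hours at five concentrations. TGI: total growth inhibition.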

Legend:
Assay in all cases: DTP human tumour cell line panel, 48 h
786-0 renal = system: 786-0 renal
A549 NSCLC = system: A549 NSCLC
CAKI-1 renal = system: CAKI-1 renal
CCRF-CEM leukemia = system: CCRF-CEM leukemia
COLO 205 colon = system: COLO 205 colon
DU-145 prostate = system: DU-145 prostate
EKVX NSCLC = system: EKVX NSCLC
HCC-2998 colon = system: HCC-2998 colon
HCT-15 colon = system: HCT-15 colon
HL-60(TB) leukemia = system: HL-60(TB) leukemia
HOP-62 NSCLC = system: HOP-62 NSCLC
HT29 colon = system: HT29 colon
IGROV1 ovarian = system: IGROV1 ovarian
K-562 leukemia = system: K-562 leukemia
KM12 colon = system: KM12 colon
M14 melanoma = system: M14 melanoma
MALME-3M melanoma = system: MALME-3M melanoma
MCF7 breast = system: MCF7 breast
MDA-MB-231 breast = system: MDA-MB-231 breast
MDA-N = system: MDA-N
MOLT-4 leukemia = system: MOLT-4 leukemia
NCI-H23 lung = system: NCI-H23 lung
OVCAR-8 ovarian = system: OVCAR-8 ovarian
PC-3 prostate = system: PC-3 prostate
RPMI-8226 leukemia = system: RPMI-8226 leukemia
RXF 393 renal = system: RXF 393 renal
SF-268 CNS = system: SF-268 CNS
SF-295 CNS = system: SF-295 CNS
SK-MEL-28 melanoma = system: SK-MEL-28 melanoma
SK-MEL-5 melanoma = system: SK-MEL-5 melanoma
SK-OV-3 ovarian = system: SK-OV-3 ovarian
SN12C renal = system: SN12C renal
SNB-75 CNS = system: SNB-75 CNS
SR leukemia = system: SR leukemia
SW-620 colon = system: SW-620 colon
T-47D breast = system: T-47D breast
TK-10 renal = system: TK-10 renal
UACC-257 melanoma = system: UACC-257 melanoma
UACC-62 melanoma = system: UACC-62 melanoma
ACHN renal = system: ACHN renal
BT-549 breast = system: BT-549 breast
HCT-116 colon = system: HCT-116 colon
LOX IMVI melanoma = system: LOX IMVI melanoma
NCI-H226 lung = system: NCI-H226 lung
NCI-H460 lung = system: NCI-H460 lung
NCI-H522 lung = system: NCI-H522 lung
NCI/ADR-RES ovarian = system: NCI/ADR-RES ovarian
OVCAR-3 ovarian = system: OVCAR-3 ovarian
OVCAR-5 ovarian = system: OVCAR-5 ovarian
SF-539 CNS = system: SF-539 CNS
SNB-19 CNS = system: SNB-19 CNS
UO-31 renal = system: UO-31 renal
A498 renal = system: A498 renal
HOP-92 NSCLC = system: HOP-92 NSCLC
HS 578T breast = system: HS 578T breast
MDA-MB-435 = system: MDA-MB-435
OVCAR-4 ovarian = system: OVCAR-4 ovarian
U251 CNS = system: U251 CNS

C1=C(c2ccccc2)O[C@H](COCc2ccccc2)C(OCc2ccccc2)[C@@H]1OCc1ccccc1 (some centres undefined)
TGI (786-0 renal): > 10 µM
TGI (A549 NSCLC): > 10 µM
TGI (CAKI-1 renal): > 10 µM
TGI (CCRF-CEM leukemia): > 10 µM
TGI (COLO 205 colon): > 10 µM
TGI (DU-145 prostate): > 10 µM
TGI (EKVX NSCLC): > 10 µM
TGI (HCC-2998 colon): > 10 µM
TGI (HCT-15 colon): > 10 µM
TGI (HL-60(TB) leukemia): > 10 µM
TGI (HOP-62 NSCLC): > 10 µM
TGI (HT29 colon): > 10 µM
TGI (IGROV1 ovarian): > 10 µM
TGI (K-562 leukemia): > 10 µM
TGI (KM12 colon): > 10 µM
TGI (M14 melanoma): > 10 µM
TGI (MALME-3M melanoma): > 10 µM
TGI (MCF7 breast): > 10 µM
TGI (MDA-MB-231 breast): > 10 µM
TGI (MDA-N): > 10 µM
TGI (MOLT-4 leukemia): > 10 µM
TGI (NCI-H23 lung): > 10 µM
TGI (OVCAR-8 ovarian): > 10 µM
TGI (PC-3 prostate): > 10 µM
TGI (RPMI-8226 leukemia): > 10 µM
TGI (RXF 393 renal): > 10 µM
TGI (SF-268 CNS): > 10 µM
TGI (SF-295 CNS): > 10 µM
TGI (SK-MEL-28 melanoma): > 10 µM
TGI (SK-MEL-5 melanoma): > 10 µM
TGI (SK-OV-3 ovarian): > 10 µM
TGI (SN12C renal): > 10 µM
TGI (SNB-75 CNS): > 10 µM
TGI (SR leukemia): > 10 µM
TGI (SW-620 colon): > 10 µM
TGI (T-47D breast): > 10 µM
TGI (TK-10 renal): > 10 µM
TGI (UACC-257 melanoma): > 10 µM
TGI (UACC-62 melanoma): > 10 µM

Cc1cc(C)nc(NCCC(O)(P(=O)(O)O)P(=O)(O)O)n1
TGI (786-0 renal): > 100 µM
TGI (A549 NSCLC): > 100 µM
TGI (ACHN renal): > 100 µM
TGI (BT-549 breast): > 100 µM
TGI (CAKI-1 renal): > 100 µM
TGI (COLO 205 colon): > 100 µM
TGI (DU-145 prostate): > 100 µM
TGI (EKVX NSCLC): > 100 µM
TGI (HCC-2998 colon): > 100 µM
TGI (HCT-116 colon): > 100 µM
TGI (HCT-15 colon): > 100 µM
TGI (HOP-62 NSCLC): > 100 µM
TGI (IGROV1 ovarian): > 100 µM
TGI (KM12 colon): > 100 µM
TGI (LOX IMVI melanoma): > 100 µM
TGI (M14 melanoma): > 100 µM
TGI (MALME-3M melanoma): > 100 µM
TGI (MCF7 breast): > 100 µM
TGI (MDA-MB-231 breast): > 100 µM
TGI (MDA-N): > 100 µM
TGI (NCI-H226 lung): > 100 µM
TGI (NCI-H23 lung): > 100 µM
TGI (NCI-H460 lung): > 100 µM
TGI (NCI-H522 lung): > 100 µM
TGI (NCI/ADR-RES ovarian): > 100 µM
TGI (OVCAR-3 ovarian): > 100 µM
TGI (OVCAR-5 ovarian): > 100 µM
TGI (PC-3 prostate): > 100 µM
TGI (RXF 393 renal): > 100 µM
TGI (SF-268 CNS): > 100 µM
TGI (SF-295 CNS): > 100 µM
TGI (SF-539 CNS): > 100 µM
TGI (SK-MEL-5 melanoma): > 100 µM
TGI (SK-OV-3 ovarian): > 100 µM
TGI (SNB-19 CNS): > 100 µM
TGI (TK-10 renal): > 100 µM
TGI (UACC-257 melanoma): > 100 µM
TGI (UACC-62 melanoma): > 100 µM
TGI (UO-31 renal): > 100 µM

O=C1CC(C(OCc2ccccc2)C(OCc2ccccc2)C(OCc2ccccc2)C(COCc2ccccc2)OCc2ccccc2)CC(=O)N1 (centres undefined)
TGI (786-0 renal): > 100 µM
TGI (A498 renal): > 100 µM
TGI (A549 NSCLC): > 100 µM
TGI (ACHN renal): > 100 µM
TGI (BT-549 breast): > 100 µM
TGI (CCRF-CEM leukemia): > 100 µM
TGI (DU-145 prostate): > 100 µM
TGI (EKVX NSCLC): > 100 µM
TGI (HCC-2998 colon): > 100 µM
TGI (HCT-15 colon): > 100 µM
TGI (HL-60(TB) leukemia): > 100 µM
TGI (HOP-62 NSCLC): > 100 µM
TGI (HOP-92 NSCLC): > 100 µM
TGI (HS 578T breast): > 100 µM
TGI (HT29 colon): > 100 µM
TGI (IGROV1 ovarian): > 100 µM
TGI (K-562 leukemia): > 100 µM
TGI (LOX IMVI melanoma): > 100 µM
TGI (M14 melanoma): > 100 µM
TGI (MALME-3M melanoma): > 100 µM
TGI (MDA-MB-435): > 100 µM
TGI (MDA-N): > 100 µM
TGI (MOLT-4 leukemia): > 100 µM
TGI (NCI-H23 lung): > 100 µM
TGI (NCI-H460 lung): > 100 µM
TGI (NCI/ADR-RES ovarian): > 100 µM
TGI (OVCAR-3 ovarian): > 100 µM
TGI (OVCAR-4 ovarian): > 100 µM
TGI (OVCAR-5 ovarian): > 100 µM
TGI (OVCAR-8 ovarian): > 100 µM
TGI (PC-3 prostate): > 100 µM
TGI (RPMI-8226 leukemia): > 100 µM
TGI (RXF 393 renal): > 100 µM
TGI (SF-268 CNS): > 100 µM
TGI (SF-295 CNS): > 100 µM
TGI (SK-MEL-28 melanoma): > 100 µM
TGI (SK-MEL-5 melanoma): > 100 µM
TGI (SN12C renal): > 100 µM
TGI (SNB-19 CNS): > 100 µM
TGI (SNB-75 CNS): > 100 µM
TGI (SR leukemia): > 100 µM
TGI (SW-620 colon): > 100 µM
TGI (TK-10 renal): > 100 µM
TGI (U251 CNS): > 100 µM
TGI (UACC-257 melanoma): > 100 µM
TGI (UO-31 renal): > 100 µM
